# Experimental data published in US20090233960A1, “Kinase Inhibitors” (Devgen NV, priority 2005, published 2009).
# “Also recorded” adds a separate entry of the source.
# Molecular target: T1, human ROCKI/ROCKII mix (Homo sapiens, UniProt O75116)
# T1 construct: purchased Upstate Biotechnology 14451
# Test: ROCK inhibition, fluorescence polarization (FP) IMAP assay
# Format: biochemical
# Settings: 10 μM ATP
# Procedure: The compounds of the invention were tested for inhibition of human ROCKI/ROCKII mix.
# The inhibition assays were performed with a fluorescence polarization (FP) assay using the commercially available ROCK IMAP Kit from Molecular Devices (Product ID. No. R8093) essentially in accordance with the protocol supplied by the manufacturer. The S6 ribosomal protein-derived substrate used was (Fl)-[…], also obtained from Molecular Devices (Product ID No. R7184). The enzyme mix ROCKI/ROCKII was obtained from Upstate Biotechnology (Product ID No 14451).
# In summary, all compounds were screened in the wells of a 384 well plate for enzymatic inhibition with concentrations varying from 100 μM to 0.3 nM using a stepwise three (or two)-fold dilution.
# To perform the assay, 1 μl of a solution of the compound to be tested in DMSO (at each concentration) was added to 2 μl of a solution of the enzyme in 10 mM Tris-HCl, 10 mM MgCl2, 0.1% BSA, 0.05% NaN3, pH 7,2. The final concentration of the enzyme was 2.6 nM.
# After incubating for 30 minutes at room temperature, 2 μl of a mixture of ATP and the protein substrate in 10 mM Tris-HCl, 10 mM MgCl2, 0.1% BSA, 0.05% NaN3, pH 7.2 was added. The final concentration of the ATP was 10 μM and final concentration of protein substrate was 0.2 μM.
# After incubating for 60 minutes at room temperature, 12 μl of the IMAP Binding Solution (mix of the IMAP Binding Buffer A (1×) and the IMAP Binding Reagent (from the ROCK IMAP kit)) was added.
# The mixture thus obtained (total volume: 17 μl) was incubated for 60 minutes at room temperature, upon which the fluorescence polarization was measured using an automated plate reader (Perkin Elmer, Model Envision 2100-0010 HTS) with FP filters: excitation filter FITC FP 480 and emission filters FITC FP P-pol 535 and FITC FP S-pol 535 (Perkin-Elmer). The results were fitted to a curve using the XL-Fit algorithm and IC50 values were calculated for each fitted curve, again using the XL-Fit algorithm.
# T1 sequence (O75116 11-552 limits assumed): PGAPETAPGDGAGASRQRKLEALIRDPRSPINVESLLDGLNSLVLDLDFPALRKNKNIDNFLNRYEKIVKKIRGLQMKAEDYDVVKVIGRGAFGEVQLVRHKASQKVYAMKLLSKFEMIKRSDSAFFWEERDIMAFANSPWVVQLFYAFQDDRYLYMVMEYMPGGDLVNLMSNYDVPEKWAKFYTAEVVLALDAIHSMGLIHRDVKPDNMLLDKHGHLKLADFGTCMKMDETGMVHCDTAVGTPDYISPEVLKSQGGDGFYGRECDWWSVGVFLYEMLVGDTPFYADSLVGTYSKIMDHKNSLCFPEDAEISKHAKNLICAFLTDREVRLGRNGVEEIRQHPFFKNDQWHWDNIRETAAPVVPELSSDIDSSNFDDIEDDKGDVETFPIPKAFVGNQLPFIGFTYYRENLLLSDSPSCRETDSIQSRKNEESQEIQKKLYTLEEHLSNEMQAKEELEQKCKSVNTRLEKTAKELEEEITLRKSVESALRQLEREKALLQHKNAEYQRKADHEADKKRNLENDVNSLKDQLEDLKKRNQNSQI
row,IC50 [µM],Structure (SMILES)
1,0.5 to 5,"CC(N)c1ccc(C(=O)Nc2ccncc2)cc1O (stereo not drawn) [Compound 1, 4-(1-amino-ethyl)-3-hydroxy-N-pyridin-4-yl-benzamide]"
2,0.05 to 0.5,"CC(N)c1ccc(C(=O)Nc2ccncc2)cc1[N+](=O)[O-] (stereo not drawn) [Compound 2, 4-(1-amino-ethyl)-3-nitro-N-pyridin-4-yl-benzamide]"
3,0.5 to 5,"CC(N)c1ccc(C(=O)Nc2ccncc2)cc1N (stereo not drawn) [Compound 3, 3-amino-4-(1-amino-ethyl)-N-pyridin-4-yl-benzamide]"
4,< 0.05,"CC(N)c1ccc(C(=O)Nc2ccncc2)cc1-c1ccc(Cl)cc1 (stereo not drawn) [Compound 4, 6-(1-amino-ethyl)-4′-chloro-biphenyl-3-carboxylic acid pyridin-4-ylamide]"
5,< 0.05,"CC(N)c1ccc(C(=O)Nc2ccncc2)cc1-c1cccs1 (stereo not drawn) [Compound 5, 4-(1-amino-ethyl)-N-pyridin-4-yl-3-thiophen-2-yl-benzamide]"
6,0.05 to 0.5,"COc1ccc(-c2cc(C(=O)Nc3ccncc3)ccc2C(C)N)cc1 (stereo not drawn) [Compound 6, 6-(1-amino-ethyl)-4′-methoxy-biphenyl-3-carboxylic acid pyridin-4-ylamide]"
7,0.05 to 0.5,"CC(N)c1ccc(C(=O)Nc2ccncc2)cc1-c1ccoc1 (stereo not drawn) [Compound 7, 4-(1-amino-ethyl)-3-furan-3-yl-N-pyridin-4-yl-benzamide]"
8,0.5 to 5,"CC(N)c1ccc(C(=O)Nc2ccncc2)cc1OCCO (stereo not drawn) [Compound 8, 4-(1-amino-ethyl)-3-(2-hydroxy-ethoxy)-N-pyridin-4-yl-benzamide]"
9,0.5 to 5,"CC(N)c1ccc(C(=O)Nc2ccncc2)cc1OCCCO (stereo not drawn) [Compound 9, 4-(1-amino-ethyl)-3-(3-hydroxy-propoxy)-N-pyridin-4-yl-benzamide]"
10,0.5 to 5,"CC(N)c1ccc(C(=O)Nc2ccncc2)cc1OCCN (stereo not drawn) [Compound 10, 3-(2-amino-ethoxy)-4-(1-amino-ethyl)-N-pyridin-4-yl-benzamide]"
11,0.5 to 5,"CC(N)c1ccc(C(=O)Nc2ccncc2)cc1OCCCN (stereo not drawn) [Compound 11, 4-(1-amino-ethyl)-3-(3-amino-propoxy)-N-pyridin-4-yl-benzamide]"
12,0.05 to 0.5,"CC(N)c1ccc(C(=O)Nc2ccncc2)cc1OCc1ccccc1 (stereo not drawn) [Compound 12, 4-(1-amino-ethyl)-3-benzyloxy-N-pyridin-4-yl-benzamide]"
13,0.05 to 0.5,"CC(N)c1ccc(C(=O)Nc2ccncc2)cc1NC(=S)Nc1ccccc1 (stereo not drawn) [Compound 13, 4-(1-amino-ethyl)-3-(3-phenyl-thioureido)-N-pyridin-4-yl-benzamide]"
14,0.05 to 0.5,"CC(N)c1ccc(C(=O)Nc2ccncc2)cc1NC(=O)Nc1ccccc1 (stereo not drawn) [Compound 14, 4-(1-amino-ethyl)-3-(3-phenyl-ureido)-N-pyridin-4-yl-benzamide]"
15,0.05 to 0.5,"CC(N)c1ccc(C(=O)Nc2ccncc2)cc1NCc1ccco1 (stereo not drawn) [Compound 16, 4-(1-amino-ethyl)-3-[(furan-2-ylmethyl)-amino]-N-pyridin-4-yl-benzamide]"
16,0.05 to 0.5,"CC(N)c1ccc(C(=O)Nc2ccncc2)cc1NC(=O)c1ccccc1 (stereo not drawn) [Compound 17, 4-(1-amino-ethyl)-3-benzoylamino-N-pyridin-4-yl-benzamide]"
17,0.05 to 0.5,"CC(N)c1ccc(C(=O)Nc2ccncc2)cc1NC(=O)c1ccco1 (stereo not drawn) [Compound 18, furan-2-carboxylic acid [2-(1-amino-ethyl)-5-(pyridin-4-ylcarbamoyl)-phenyl]-amide]"
18,< 0.05,"COc1cccc(C(=O)Nc2cc(C(=O)Nc3ccncc3)ccc2C(C)N)c1 (stereo not drawn) [Compound 19, 4-(1-amino-ethyl)-3-(3-methoxy-benzoylamino)-N-pyridin-4-yl-benzamide]"
19,0.05 to 0.5,CC(N)c1ccc(C(=O)Nc2ccncc2)cc1NC(=O)c1cccc(Cl)c1 (stereo not drawn) [Compound 20]
20,< 0.05,"COc1ccc(C(=O)Nc2cc(C(=O)Nc3ccncc3)ccc2C(C)N)cc1 (stereo not drawn) [Compound 21, 4-(1-Amino-ethyl)-3-(4-methoxy-benzoylamino)-N-pyridin-4-yl-benzamide]"
21,0.05 to 0.5,"CC(N)c1ccc(C(=O)Nc2ccncc2)cc1NC(=O)c1ccc(Cl)cc1 (stereo not drawn) [Compound 22, 4-(1-Amino-ethyl)-3-(4-chloro-benzoylamino)-N-pyridin-4-yl-benzamide]"
22,< 0.05,"CC(N)c1ccc(C(=O)Nc2ccncc2)cc1-c1cccc(Cl)c1 (stereo not drawn) [Compound 24, 6-(1-aminoethyl)-3′-chloro-N-pyridin-4-ylbiphenyl-3-carboxamide]"
23,< 0.05,"CC(N)c1ccc(C(=O)Nc2ccncc2)cc1-c1ccc(F)cc1 (stereo not drawn) [Compound 26, 6-(1-aminoethyl)-4′-fluoro-N-pyridin-4-ylbiphenyl-3-carboxamide]"
24,< 0.05,"CC(N)c1ccc(C(=O)Nc2ccncc2)cc1-c1ccc2ccccc2c1 (stereo not drawn) [Compound 32, 4-(1-aminoethyl)-3-(2-naphthyl)-N-pyridin-4-ylbenzamide]"
25,< 0.05,"C[C@@H](N)c1ccc(C(=O)Nc2ccncc2)cc1-c1cccs1 [Compound 103, 4-((R)-1-Amino-ethyl)-N-pyridin-4-yl-3-thiophen-2-yl-benzamide]"
26,0.05 to 0.5,"C[C@H](N)c1ccc(C(=O)Nc2ccncc2)cc1-c1cccs1 [Compound 104, 4-((S)-1-Amino-ethyl)-N-pyridin-4-yl-3-thiophen-2-yl-benzamide]"

# Test system: spontaneous hypertensive rats (SHRs)
# Test: Activity on hypertension in spontaneous hypertensive rats (SAP and heart rate)
# Format: in vivo, rat
# Settings: SHR, 10 mg/kg, single oral dose
# Procedure: The efficiency of compounds of the invention to reduce and/or treat hypertension in an acute model was evaluated using spontaneous hypertensive rats (SHRs).
# Compounds were administered as one single dose to SHR. Systolic arterial pressure (SAP) and heart rate were recorded before (−1 hr) and 1, 3, 5, 7, and 24 hours after oral administration of vehicle or test compound.
# A reduction in SAP by 10 percent or more (>10%), or a decrease in heart rate by 20 percent or more (>20%), relative to baseline was considered significant.
row,Structure (SMILES),hypotensive response (systolic arterial pressure)
1,C[C@@H](N)[C@H]1CC[C@H](C(=O)Nc2ccncc2)CC1 [Compound Y-27632],not significant; also recorded: completely inactive
